Structures can show the parent of a compound that is named as a salt.
target: AaDOP2 (Aedes aegypti, UniProt H6D5H2); experiment: AaDOP2 antagonist screen of the LOPAC1280 library (HEK-CRELuc-Aadop2 cells, luminescence); format: cell-based; details: not given
Sequence (H6D5H2 1-476): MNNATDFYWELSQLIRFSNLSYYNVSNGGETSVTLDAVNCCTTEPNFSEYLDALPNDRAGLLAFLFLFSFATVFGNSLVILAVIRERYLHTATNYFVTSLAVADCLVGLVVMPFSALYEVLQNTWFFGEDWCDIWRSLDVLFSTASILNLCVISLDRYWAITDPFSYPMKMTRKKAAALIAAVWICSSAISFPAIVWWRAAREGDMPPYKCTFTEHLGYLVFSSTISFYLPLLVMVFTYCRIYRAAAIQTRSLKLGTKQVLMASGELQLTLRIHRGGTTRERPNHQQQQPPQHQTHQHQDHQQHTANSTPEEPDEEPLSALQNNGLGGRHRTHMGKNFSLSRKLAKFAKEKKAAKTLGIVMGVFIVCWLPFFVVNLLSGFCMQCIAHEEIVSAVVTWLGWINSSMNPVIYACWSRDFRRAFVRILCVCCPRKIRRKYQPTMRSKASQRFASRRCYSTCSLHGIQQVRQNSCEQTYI

| SMILES | Compound effect (percent receptor signaling in presence of test compound, relative lux units relative to the SCH23390 control) | % of the SCH23390 effect (percent inhibition of receptor response relative to the SCH23390 control) [%] |
| --- | --- | --- |
| C[C@@H]1O[C@H](C[N+](C)(C)C)C[C@H]1O.[Cl-] (racemic) [Compound 814, (±)-Muscarine chloride] | 104 |  |
| COc1cc(C(O)CN)ccc1O.Cl (racemic) [Compound 862, (±)-Normetanephrine hydrochloride] | 81 |  |
| NCC(O)c1ccc(O)cc1 (racemic) [Compound 894, (±)-Octopamine hydrochloride, reference compound] | 104 |  |
| CN1CCN(C2Cc3ccccc3Sc3ccc(Cl)cc32)CC1.O=C(O)/C=C\C(=O)O (racemic) [Compound 913, (±)-Octoclothepin maleate] | 3 | 97 |
| CC(C)NCC(O)COc1cccc2ccccc12.Cl (racemic) [Compound 922, (±)-Propranolol hydrochloride] | 102 |  |
| CCCCCCCCCCCCCCCC(=O)OC(CC(=O)O)C[N+](C)(C)C.[Cl-] (racemic) [Compound 943, Palmitoyl-DL-Carnitine chloride] | 59 |  |
| O=C(O)[C@H]1CCCN[C@H]1C(=O)O (racemic) [Compound 985, (±)-cis-Piperidine-2,3-dicarboxylic acid] | 108 |  |
| CNCC(O)c1ccc(O)cc1 (racemic) [Compound 1077, (±)-Synephrine] | 88 |  |
| CCCCCCCCCCCCCCCCCC(=O)OC(CC(=O)O)C[N+](C)(C)C.[Cl-] (racemic) [Compound 1088, DL-Stearoylcarnitine chloride] | 101 |  |
| Br.C=CCN1CCc2cc(O)c(O)cc2C(c2ccccc2)C1 (racemic) [Compound 1139, (±)-SKF 38393, N-allyl-, hydrobromide] | 70 |  |
| O=C1c2c(O)cc(O)cc2O[C@H](c2ccc(O)c(O)c2)[C@H]1O (racemic) [Compound 1176, (±)-Taxifolin] | 102 |  |
| O=C(O)CCCCC1CCSS1 (racemic) [Compound 1185, (±)-alpha-Lipoic Acid] | 111 |  |
| O=C(O)CNC(=O)C(CS)Cc1ccccc1 (racemic) [Compound 1186, DL-Thiorphan] | 107 |  |
| COc1ccc(CCN(C)CCCC(C#N)(c2ccc(OC)c(OC)c2)C(C)C)cc1OC.Cl (racemic) [Compound 1252, (±)-Verapamil hydrochloride] | 117 |  |
| Cl.OC1CCCCC1N1CCC(c2ccccc2)CC1 (racemic) [Compound 1259, (±)-Vesamicol hydrochloride] | 97 |  |
| O=C(O)[C@H]1C[C@H](C(=O)O)N1 (relative stereo) [Compound 146, trans-Azetidine-2,4-dicarboxylic acid] | 110 |  |
| C[C@]12CC[C@H](O)CC1=CC[C@@H]1[C@@H]2CC[C@]2(C)C(=O)CC[C@@H]12 (relative stereo) [Compound 381, trans-Dehydroandrosterone] | 114 |  |
| C=CCN1CCC2(C)c3cc(O)ccc3CC1C2C.Cl (single isomer, unassigned; (+)) [Compound 123, (+)-N-Allylnormetazocine hydrochloride] | 90 |  |
| CC1OCC(C[N+](C)(C)C)O1.[I-] (single isomer, unassigned; (+)) [Compound 325, (+)-cis-Dioxolane iodide] | 96 |  |
| CC1C2Cc3ccc(O)cc3C1(C)CCN2CC1CC1 (single isomer, unassigned; (+)) [Compound 341, (+)-Cyclazocine] | 86 |  |
| COc1ccc2c(c1OC)C(=O)OC2C1c2cc3c(cc2CCN1C)OCO3 (single isomer, unassigned; (+)) [Compound 605, (+)-Hydrastine] | 122 |  |
| CC(N)C(O)c1ccc(O)c(O)c1 (single isomer, unassigned; (-)) [Compound 388, (-)-alpha-Methylnorepinephrine] | 88 |  |
| COc1ccc2c3c1OC1C(=O)CC[C@@]4(O)[C@@H](C2)N(CC2CC2)CC[C@]314.Cl (single isomer, unassigned; (-)) [Compound 836, (-)-3-Methoxynaltrexone hydrochloride] | 75 |  |
| O=C(O)c1ccccc1Nc1ccccc1 [Compound 2, N-Phenylanthranilic acid] | 100 |  |
| Cl.NCCCCC(=O)O [Compound 4, 5-Aminovaleric acid hydrochloride] | 115 |  |
| O=C(O)CCCCCCCC(=O)O [Compound 6, Azelaic acid] | 107 |  |
| NCCc1c[nH]c2ccccc12 [Compound 7, Tryptamine hydrochloride] | 121 |  |
| O=C(O)c1cc2cc(F)ccc2[nH]1 [Compound 8, 5-Fluoroindole-2-carboxylic acid] | 92 |  |
| COc1ccc2[nH]c3c(c2c1)CCNC3 [Compound 9, 6-Methoxy-1,2,3,4-tetrahydro-9H-pyrido[3,4b] indole] | 116 |  |
| Nc1nc(SCc2ccc([N+](=O)[O-])cc2)c2ncn([C@@H]3O[C@H](CO)[C@@H](O)[C@H]3O)c2n1 [Compound 10, S-(4-Nitrobenzyl)-6-thioguanosine] | 105 |  |

same assay, conditions: 10 µM compound, 300 nM dopamine, 2 hr; hit = compound effect <20

| SMILES | Compound effect (percent receptor signaling in presence of test compound, relative lux units relative to the SCH23390 control) [%] |
| --- | --- |
| CC(N)(Cc1ccc(O)c(O)c1)C(=O)O (racemic) [Compound 797, (±)-3-(3,4-dihydroxyphenyl)-2-methyl-DL-alanine] | 99 |
| CCCCCCCCCC(=O)NC(CN1CCOCC1)[C@H](O)c1ccccc1.Cl (mixture of isomers) [Compound 968, (±)-threo-1-Phenyl-2-decanoylamino-3-morpholino-1-propanol hydrochloride] | 85 |
| CCCN(CCc1ccccc1)C1CCc2c(O)cccc2C1.Cl (racemic) [Compound 1005, (±)-PPHT hydrochloride] | 73 |
| CCN1CCC[C@H]1CNC(=O)c1c(O)c(Cl)cc(Cl)c1OC.O=C(O)C(O)C(O)C(=O)O (racemic) [Compound 1069, S(+)-Raclopride L-tartrate] | 76 |
| CC(C)NCC(O)c1ccc(NS(C)(=O)=O)cc1.Cl (racemic) [Compound 1074, (±)-Sotalol hydrochloride] | 125 |
| CCN1CCCC1CNC(=O)c1cc(S(N)(=O)=O)ccc1OC (racemic) [Compound 1113, (±)-Sulpiride] | 114 |
| Br.Oc1cc2c(c(Cl)c1O)CCNCC2c1ccccc1 (racemic) [Compound 1133, (±)-6-Chloro-PB hydrobromide] | 99 |
| O=C1CCC(N2C(=O)c3ccccc3C2=O)C(=O)N1 (racemic) [Compound 1227, (±)-Thalidomide] | 107 |
| C=CC(N)CCC(=O)O (racemic) [Compound 1256, (±)-gamma-Vinyl GABA] | 108 |
| CC[C@@H]1Cc2cc(O)ccc2C2=C1c1ccc(O)cc1C[C@H]2CC (relative stereo) [Compound 423, (R,R)-cis-Diethyl tetrahydro-2,8-chrysenediol] | 40 |
| Nc1ncnc2c1nc(Sc1ccc(Cl)cc1)n2C1OC2COP(=O)(O)O[C@H]2C1O (stereo in doubt) [Compound 251, 8-(4-Chlorophenylthio)-cAMP sodium] | 97 |
| NC(=S)c1ccc[n+]([C@@H]2OC(COP(=O)([O-])OP(=O)(O)OC[C@H]3O[C@@H](n4cnc5c(N)ncnc54)[C@H](OP(=O)(O)O)[C@@H]3O)C(O)C2O)c1 (stereo in doubt) [Compound 1183, Thio-NADP sodium] | 84 |
| Brc1ccc([C@H]2CN3CCSC3=N2)cc1.O=C(O)C(=O)O [Compound 3, S(-)-p-Bromotetramisole oxalate] | 106 |

From paper PMC3265452 (PLoS Neglected Tropical Diseases, 2012)
